From patent US20230181638A1, “IMMUNOGENIC PEPTIDES WITH NEW OXIDOREDUCTASE MOTIFS” (IMCYSE SA, priority 2020, published 2023)
Where a SMILES comes first, the peptide text is derived from it. Where no end group is shown, it is not given here.

Legend:
[1] = test system: Experimental Auto-Immune Encephalomyelitis (EAE); assay: therapeutic administration, EAE clinical score in mice; format: in vivo; conditions: for mice died: therapeutic EAE study, 16 mice per group, deaths did not appear to be due to EAE
Description: The study used a total of 64 female C57BL/6 mice (Taconic Biosciences, 9 weeks old on Day 0). Mice were acclimated for 7 days prior to the first injection. Mice were assigned to groups in a balanced manner to achieve similar average weight across the groups at the start of the study.
Dosing of all mice was performed once on each of the days indicated in Table 6, s.c., at a volume of 0.05 mL/site, each mouse receiving injection at two sites, for a total of 0.1 mL/mouse/dosing day. IMCY-0189, IMCY-0453 or IMCY-0455 peptide total close was […] per administration.
For Saline treatment, 0.9% NaCl solution was prepared at each dosing day. Peptide's preparation was performed as described in example 3.
(§1) AUC, MMS, inflammation and demyelination, and NF-L levels quantification data were analyzed by performing Ordinary one-way ANOVA. Adjustment for multiplicity was performed using Holm-Sidak's method. Significant differences are referred as follows: *p<0.05, **p<0.01, ***p<0.001, ****p<0.0001.
EAE induction and scoring were performed as described in example 3.
EAE development was evaluated by comparing clinical EAE readouts for all groups to the negative control (Saline) group.

[2] = test system: Experimental Auto-Immune Encephalomyelitis (EAE); assay: prophylactic administration, EAE clinical score in mice; format: in vivo, C57BL/6 mice; conditions: vs Alum control group, FIG. 2C, FIG. 4
2D2-Total CD4+ cells = assay: induction of lytic markers on CD4+ T cells after second stimulation; format: cell-based, 2D2 transgenic mice; conditions: 5 μM control peptide, 10-14 days after S1
Description: 2D2 transgenic mice (Jackson Laboratory) were used as a source of CD4+ cell. […] In this study, 2D2-Total CD4+ cells were purified using manufacture instruction (Miltenyi Biotec, 130-104-454) and antigen presenting cells were splenocyte depleted for T cell repertoire (CD90.2 depletion, Miltenyi Biotec, 130-104-454) from C57BL6 mice (compatible with 2D2-transgenic mice). Control conditions for every study were either no-peptide addition or addition of IMCY-0017, IMCY-0257 or IMCY-0069 (see example 1 and table 1) which the two later, can bind to MHCII from C57BL6-APC efficiently but not activate the TCR from 2D2-transgenic CD4+ T cells. AA controls were not used.
Immunogenic peptides comprising an MCHII T cell epitope and a classical oxidoreductase motif of sequence CxxC are known from the art to induce CD4+ cells with lytic markers called cytolytic CD4+ cells (cCD4+). Therefore, it was attempted to determine whether the peptide variants of the present invention would lead to earlier and/or stronger (percentage or intensity) lytic properties in activated Ag-specific CD4 T cells. […] The FACS results were then determined for all variants of IMCY-0189 and the measurement for the wild type peptide (IMCY-0017) was removed from all the other measurements to determine purely the effect of every modified oxidoreductase motif on the induction of lytic properties.

[3] = test system: Experimental Auto-Immune Encephalomyelitis (EAE); assay: therapeutic EAE study, spinal cord histology (H&E, anti-MBP); format: in vivo, C57BL/6 mice; conditions: spinal cord sections at end of study, vs Saline control
Description: At the end of the study, all mice were euthanized, and spines were collected and placed in 10% buffered formalin for histological analysis.
For each spine, one H&E stained slide and one anti-MBP stained slide were prepared and analyzed. Each slide contained a section with samples from lumbar, thoracic and cervical of spinal cord (3 samples). All analysis was performed by a pathologist blinded to the experimental groups and all clinical readouts.
Inflammatory foci of approximately 20 cells were counted in each H&E stained section. When inflammatory infiltrates consisted of more than 20 cells, an estimate was made of how many foci of 20 cells were present.
Demyelination was scored in each anti-MBP (using immunohistochemistry) stained section. In anti-MBP sections, demyelination is observed as conspicuous unstained areas in white matter tracts and is associated with presence of large vacuoles. […]
AUC, MMS, inflammation and demyelination, and NF-L levels quantification data were analyzed by performing Ordinary one-way ANOVA. […]
Histological readouts were evaluated by comparing inflammation and demyelination levels for all groups to the negative control (Saline) group.

[4] = test system: Neurofilament light (NF-L) protein; assay: therapeutic EAE study, serum neurofilament levels (Simoa NF-light); format: in vivo, C57BL/6 mice; conditions: serum on Day 28, vs Saline negative control, FIG. 10
Description: On Day 28, blood was collected from all mice into gel dot activator tubes and allowed to dot at room temperature for ˜30 minutes. Blood is then centrifuged at ˜10000 g for 5 minutes. Serum was transferred into Eppendorf tubes and stored at −80° C. until shipment to Quanterix™. Serum Neurofilament light (NF-L) protein levels were quantified using Simoa® NF-light Advantage kit, a digital immunoassay for the quantitative determination of NF-L in serum, plasma and CSF. The used antibodies (Uman Diagnostics, Umeå Sweden) also cross react with murine, bovine and macaque NF-L epitopes and as such, this assay can be used for research with these species. All samples were tested in duplicate at a dilution factor of 40×.
as §1
Axonal damage was also evaluated by comparing NF-L levels for all groups to the negative control (Saline) group.

[5] = therapeutic, 30 μg s.c. with Alum on Days 4, 9, 14, 19, vs Saline negative control

CC(C)C[C@H](NC(=O)[C@H](Cc1c[nH]cn1)NC(=O)[C@@H](NC(=O)[C@@H](NC(=O)[C@H](CCCNC(=N)N)NC(=O)[C@H](CO)NC(=O)[C@H](Cc1ccccc1)NC(=O)[C@@H]1CCCN1C(=O)[C@H](CO)NC(=O)[C@H](CCCNC(=N)N)NC(=O)[C@H](Cc1ccc(O)cc1)NC(=O)[C@H](Cc1c[nH]c2ccccc12)NC(=O)CNC(=O)[C@H](CS)NC(=O)[C@H](Cc1ccc(O)cc1)NC(=O)[C@@H]1CCCN1C(=O)[C@H](CS)NC(=O)[C@@H](N)Cc1c[nH]cn1)C(C)C)C(C)C)C(=O)N[C@@H](Cc1ccc(O)cc1)C(=O)N[C@@H](CCCNC(=N)N)C(N)=O [IMCY-0189, HCPYC-GWYRSPFSRVVHLYR-NH2, reference compound] (H-HCPYCGWYRSPFSRVVHLYR-NH2)
mice died [1]: No mice died

CC(C)C[C@H](NC(=O)[C@H](Cc1c[nH]cn1)NC(=O)[C@@H](NC(=O)[C@@H](NC(=O)[C@H](CCCNC(=N)N)NC(=O)[C@H](CO)NC(=O)[C@H](Cc1ccccc1)NC(=O)[C@@H]1CCCN1C(=O)[C@H](CO)NC(=O)[C@H](CCCNC(=N)N)NC(=O)[C@H](Cc1ccc(O)cc1)NC(=O)[C@H](Cc1c[nH]c2ccccc12)NC(=O)CNC(=O)[C@H](CS)NC(=O)[C@H](CCCNC(=N)N)NC(=O)[C@H](CS)NC(=O)[C@@H](N)CCCCN)C(C)C)C(C)C)C(=O)N[C@@H](Cc1ccc(O)cc1)C(=O)N[C@@H](CCCNC(=N)N)C(N)=O [IMCY-0453, KCRC-GWYRSPFSRVVHLYR-NH2] (H-KCRCGWYRSPFSRVVHLYR-NH2)
mice died [1]: 1

CPYC-GWYRSPFSRVVHLYR-NH2 (CPYCGWYRSPFSRVVHLYR-NH2; cysteine pairing not given here) [IMCY-0443]
reduction of the peak of the disease or MMS [2]: not observed

HCPYC-LALWEPKPTQAFVK-NH2 (HCPYCLALWEPKPTQAFVK-NH2; cysteine pairing not given here) [IMCY-0069]
survival of the cell culture up to second stimulation (2D2-Total CD4+ cells): did not survive in the cell culture

HCPYC-NGGFNSNRANSSRSS-NH2 (HCPYCNGGFNSNRANSSRSS-NH2; cysteine pairing not given here) [IMCY-0257]
survival of the cell culture up to second stimulation (2D2-Total CD4+ cells): did not survive in the cell culture

KCRPYC-GWYRSPFSRVVHLYR-NH2 (KCRPYCGWYRSPFSRVVHLYR-NH2; cysteine pairing not given here) [IMCY-0455, KCRPYC motif variant of IMCY-0189]
mice died [1]: 1 | all clinical readouts (disease onset, end score, AUC and MMS) as compared to IMCY-0189 ([1]; therapeutic, 30 μg s.c. with Alum on Days 4, 9, 14, 19, vs IMCY-0189 group): statistically significantly improved | disease onset [1, 5]: statistically significantly improved | end score [1, 5]: statistically significantly improved | AUC of EAE scores ([1]; therapeutic, 30 μg s.c. with Alum on Days 4, 9, 14, 19, vs Saline negative control, FIG. 6): statistically significantly improved | MMS of EAE scores ([1]; therapeutic, 30 μg s.c. with Alum on Days 4, 9, 14, 19, vs Saline negative control, FIG. 7): statistically significantly improved | level of inflammation (inflammatory foci, H&E) ([3]; FIG. 8): statistically significant reduced level | level of demyelination (anti-MBP score) ([3]; FIG. 9): statistically significant reduced level | serum NF-L levels [4]: statistically significant reduced
